Literature values, collected in article PMC3665737 (Biochimica et biophysica acta, 2013).
Where a SMILES comes first, the peptide text is derived from it. [ ]: non-standard residue; d: D form. Nle = CCCC[C@H](N)C(=O)O

Assays:
[1] = tested on: PKA (C subunit); conditions: ALLN 500 μM, 30 min, 37 °C, ref [15]; for calpain dependence of induced PKA activity (effect of ALLN): oligomycin 5 μM, rotenone 10 μM, CCCP 5 μM, sodium azide 2 mM
[2] = tested on: PKA; conditions: peptides 1 - 3, with 14-3-3 domain; ref [14]
[3] = tested on: mitochondrial calpain; conditions: bovine heart mitochondria; substrate N-succinyl-Leu-Tyr-7-amido-4-methylcoumarin; ref [15]
[4] = tested on: regulatory subunits (RI and RII) of PKA; conditions: bovine heart mitochondria exposed to digitonin; ref [15]
[5] = tested on: C subunit; conditions: isolated C subunit; Ca^2+ ≥ 100 μM, 37 °C, 20 min; ref [15]
[6] = tested on: R subunit; conditions: isolated R subunit; 10 μM CaCl2, 37 °C, 20 min; ref [15]
[7] = tested on: R2C2 holoenzyme; conditions: 100 μM CaCl2, 0.5, 1.5, and 2.0 h, western blot, ref [15]

CCCC[C@@H](C=O)NC(=O)[C@H](CC(C)C)NC(=O)[C@H](CC(C)C)NC(C)=O [ALLN, N-acetyl-Leu-Leu-Nle-al] (Ac-Leu-Leu-[Nle]-aldehyde)
attenuation of PKA activity induced by rotenone, azide and CCCP ([1]; western blot): attenuated

CCCCc1ccc(Nc2ccc(Nc3ccc(CCCC)cc3S(=O)(=O)[O-])c3c2C(=O)c2ccccc2C3=O)c(S(=O)(=O)[O-])c1.[Na+].[Na+] [Acid green 27]
PKA-induced fluorescence increase with quencher [2]: dramatic PKA-induced fluorescence increase

N#CC(C#N)=NNc1cccc(Cl)c1 [CCCP, chlorophenylhydrazone]
calpain dependence of induced PKA activity (effect of ALLN) [1]: attenuated by ALLN

[N-]=[N+]=[N-].[Na+] [azide, sodium azide]
calpain dependence of induced PKA activity (effect of ALLN) [1]: attenuated by ALLN

C[C@@H]1CC[C@@]2(OC1)O[C@H]1[C@@H](O)[C@H]3[C@@H]4CC[C@H]5C[C@@H](O[C@@H]6O[C@H](CO)[C@H](O[C@@H]7O[C@H](CO)[C@@H](O)[C@H](O[C@@H]8OC[C@@H](O)[C@H](O)[C@H]8O)[C@H]7O[C@@H]7O[C@H](CO)[C@H](O)[C@H](O[C@@H]8O[C@H](CO)[C@@H](O)[C@H](O)[C@H]8O)[C@H]7O)[C@H](O)[C@H]6O)[C@H](O)C[C@]5(C)[C@H]4CC[C@]3(C)[C@H]1[C@@H]2C [digitonin]
activation of mitochondrial calpain [3]: direct activation of mitochondrial calpain
C subunit proteolysis [4]: the catalytic subunit (C) remained intact

CC[C@H]1/C=C/C=C/C[C@@H](C)[C@H](O)[C@@](C)(O)C(=O)[C@@H](C)[C@H](O)[C@@H](C)C(=O)[C@@H](C)[C@H](O)[C@@H](C)/C=C/C(=O)O[C@@H]2[C@H](C)[C@H](CC1)O[C@]1(CC[C@H](C)[C@H](C[C@@H](C)O)O1)[C@H]2C [oligomycin]
calpain dependence of induced PKA activity (effect of ALLN) [1]: calpain independent

C=C(C)[C@H]1Cc2c(ccc3c2O[C@@H]2COc4cc(OC)c(OC)cc4[C@@H]2C3=O)O1 [rotenone]
calpain dependence of induced PKA activity (effect of ALLN) [1]: attenuated by ALLN

B1: calpain I: Ca^2+-activated protease (protein, UniProt P07384 2-714; P04632 1-268, looked up)
Calpain-1 catalytic subunit: SEEIITPVYCTGVSAQVQKQRARELGLGRHENAIKYLGQDYEQLRVRCLQSGTLFRDEAFPPVPQSLGYKDLGPNSSKTYGIKWKRPTELLSNPQFIVDGATRTDICQGALGDCWLLAAIASLTLNDTLLHRVVPHGQSFQNGYAGIFHFQLWQFGEWVDVVVDDLLPIKDGKLVFVHSAEGNEFWSALLEKAYAKVNGSYEALSGGSTSEGFEDFTGGVTEWYELRKAPSDLYQIILKALERGSLLGCSIDISSVLDMEAITFKKLVKGHAYSVTGAKQVNYRGQVVSLIRMRNPWGEVEWTGAWSDSSSEWNNVDPYERDQLRVKMEDGEFWMSFRDFMREFTRLEICNLTPDALKSRTIRKWNTTLYEGTWRRGSTAGGCRNYPATFWVNPQFKIRLDETDDPDDYGDRESGCSFVLALMQKHRRRERRFGRDMETIGFAVYEVPPELVGQPAVHLKRDFFLANASRARSEQFINLREVSTRFRLPPGEYVVVPSTFEPNKEGDFVLRFFSEKSAGTVELDDQIQANLPDEQVLSEEEIDENFKALFRQLAGEDMEISVKELRTILNRIISKHKDLRTKGFSLESCRSMVNLMDRDGNGKLGLVEFNILWNRIRNYLSIFRKFDLDKSGSMSAYEMRMAIESAGFKLNKKLYELIITRYSEPDLAVDFDNFVCCLVRLETMFRFFKTLDTDLDGVVTFDLFKWLQLTMFA
Calpain small subunit 1: MFLVNSFLKGGGGGGGGGGGLGGGLGNVLGGLISGAGGGGGGGGGGGGGGGGGGGGTAMRILGGVISAISEAAAQYNPEPPPPRTHYSNIEANESEEVRQFRRLFAQLAGDDMEVSATELMNILNKVVTRHPDLKTDGFGIDTCRSMVAVMDSDTTGKLGFEEFKYLWNNIKRWQAIYKQFDTDRSGTICSSELPGAFEAAGFHLNEHLYNMIIRRYSDESGNMDFDNFISCLVRLDAMFRAFKSLDKDGTGQIQVNIQEWLQLTMYS
C subunit digestion [5]: partial proteolysis
R subunit digestion [6]: selectively digested
subunit proteolysis in holoenzyme [7]: proteolysis of the R subunit, but not the C subunit
